Drawing on ChEMBL document CHEMBL3045043, “Synthesis, chemical characterization of novel 1,3-dimethyl acridones as cytotoxic agents, and their DNA-binding studies” (Med Chem Res, 2010), this text covers Activity and IC50 for 16 molecules.

Each structure is given as a SMILES string.

For orientation: IC50 means the concentration needed to halve the response being measured.

Assay [1] concerns DNA. Kind of assay: Binding affinity to Bos taurus (calf) thymus DNA assessed as hypochromicity at 15 uM by spectrophotmetry analysis. It is filed as nucleic-acid assay.
For assay [2], the system named is HL-60. Kind of assay: Cytotoxicity against Homo sapiens (human) HL60 cells after 48 hr by trypan blue assay. In kind it is functional, cell-based. Conditions: HL-60, 48 h.
Assay [3] has as its system MCF7. The assay is described as follows: Cytotoxicity against Homo sapiens (human) MCF7 cells after 48 hr by trypan blue assay. It is filed as functional, cell-based. The note with it: MCF7, 48 h.

`Cc1cc(C)c2c(=O)c3ccccc3n(CCCCN3CCCC3)c2c1`: the Activity in assay [1] turned out to be 29%. Moreover, the IC50 in assay [2] was 14.1 µM; in assay [3], 4.56 µM.
As to `Cc1cc(C)c2c(=O)c3ccccc3n(CCCN3CCOCC3)c2c1`, the Activity in assay [1] was 13%. For the same molecule, the IC50 turned out to be 13.7 µM in assay [2] and 43.9 µM in assay [3].
Turning to `Cc1cc(C)c2c(=O)c3ccccc3n(CCCN3CCCC3)c2c1`, the IC50 is 14.6 µM in assay [2] and 19.7 µM in assay [3].
Consider `Cc1cc(C)c2c(=O)c3ccccc3n(CCCCN3CCN(C)CC3)c2c1`, for which the Activity in assay [1] was found to be 51%. Also, the figures for the IC50 in assay [2] and in assay [3] were 1.74 µM and 8.96 µM, respectively.
The matching figures for `Cc1cc(C)c2c(=O)c3ccccc3n(CCCCN3CCN(CCO)CC3)c2c1`: 53%, 11 µM and 4 µM.
For the molecule `Cc1cc(C)c2c(=O)c3ccccc3n(CCCN3CCCCC3)c2c1`, the IC50 in assay [2] amounted to 14.1 µM; in assay [3], 34.6 µM.
On to `CCN(CC)CCCCn1c2ccccc2c(=O)c2c(C)cc(C)cc21`, for which, in assay [1], the Activity stood at 52%. Also, the IC50 in assay [2] turned out to be 0.45 µM; in assay [3], 7.98 µM.
Consider `Cc1cc(C)c2c(=O)c3ccccc3n(CCCCN3CCOCC3)c2c1`, for which the Activity in assay [1] was 35%. The IC50 in assay [2] is 0.51 µM; in assay [3], 8.45 µM.
Take `Cc1cc(C)c2c(=O)c3ccccc3n(CCCCl)c2c1`: the IC50 in assay [2] was 16.4 µM; in assay [3], 54.4 µM.
As to `Cc1cc(C)c2c(=O)c3ccccc3n(CCCN3CCN(C)CC3)c2c1`, the Activity in assay [1] was 48%. Besides, the values for the IC50 in assay [2] and in assay [3] were 15.4 µM and 28.5 µM, respectively.
As to `Cc1cc(C)c2c(=O)c3ccccc3n(CCCCCl)c2c1`, the IC50 was 14.2 µM in assay [2] and 34.4 µM in assay [3].
`Cc1cc(C)c2c(=O)c3ccccc3n(CCCCN3CCCCC3)c2c1`: in assay [1], the Activity came out at 50%. Further, the IC50 came to 1.41 µM in assay [2] and 6.67 µM in assay [3].
The like results for `Cc1cc(C)c2c(=O)c3ccccc3n(CCCN3CCN(CCO)CC3)c2c1` were, in that order, 52%, 10.9 µM and 7.87 µM.
Take `CCN(CC)CCCn1c2ccccc2c(=O)c2c(C)cc(C)cc21`: the Activity in assay [1] is 40%. Further, the values for the IC50 in assay [2] and in assay [3] were 1.65 µM and 11.2 µM, respectively.
`O=P1(N(CCCl)CCCl)NCCCO1` (stereo unspecified) [CYCLOPHOSPHAMIDE ANHYDROUS] gave an IC50 in assay [3] of 0.16 µM.
Take `Cc1cc(C)c2c(=O)c3ccccc3[nH]c2c1`: the IC50 in assay [2] was determined as 20 µM; in assay [3], 78.9 µM.
